Values of other authors in patent US6645979B2, “(7-(3-carboxyphenyl)-4-chloroisoquinolin-1-yl)guanidine” (Pfizer Inc., priority 2000, dated 2003).

Target: urinary-type plasminogen activator (uPA, urokinase) (Homo sapiens, UniProt P00749)
Details: general statement, no value given

uPA antagonist potency: potent
Structure (SMILES): NC(N)=Nc1ncc(Cl)c2ccc(-c3cccc(C(=O)O)c3)cc12 [Compound (I), (7-(3-carboxyphenyl)-4-chloroisoquinolin-1-yl)guanidine]
